Laboratory results: patent US20110086850A1, “RADIOSENSITIZATION OF TUMORS WITH INDAZOLPYRROLOTRIAZINES FOR RADIOTHERAPY” (Board of Regents, The University of Texas System, priority 2008, published 2011)

Experiments:
HN-5 cells [1] = test: Cell proliferation assay (MTT assay); format: cell-based; settings: AC480 50 nM—1 μM, 72 hrs
Description: (§1) The radiosensitization effect of AC480 was evaluated in vitro using head neck squamous cell carcinoma cells, HNSCC-10, which express HER2 only and have no detectable amount of HER1 protein, and HN-5 cells, which express high levels of HER1 and HER2 proteins. […] AC480 was added to cell cultures that contained either HN-5 or HNSCC-10 cells 6 hrs before and kept in the medium for additional 66 hrs after irradiation. The cancerous cells were then irradiated with graded single doses of γ-radiation. At various predetermined time points after irradiation, the cells were assessed: (a) for clonogenic survival using clonogenic survival assays; (b) for apoptosis using aTUNEL assay; (c) for cell cycle distribution with FACS; and (d) for protein expression related to the cell cycle, apoptosis, and DNA repair, using Western blotting and immunoprecipitation methods.
(§2) The effect of AC480 on cell proliferation of HN-5 and UMSCC-10 cells was determined using 3-[4,5-dimethylthiozol-2-yl]-2,5-diphenyltetrazolium bromide (MTT) assay. HN-5 and UMSCC-10 cells are plated in 96-well plates and treated with a series of concentrations of AC480. […] The cells are then lysed in 150 μL of ethanol/DMSO mixture (1:1), and the absorbance read at 540 nm using a 96-well plate reader.

UMSCC-10 cells [2] = test: Cell proliferation assay (MTT assay); format: cell-based; settings: AC480 50 nM—1 μM, 72 hrs
Description: as §1, §2

HN-5 cells [3] = test: Clonogenic survival assay with γ-irradiation; format: cell-based; settings: for dose enhancement ratio at survival fraction of 0.5: cell line not named in the sentence (HN-5 by context)
Description: as §1
(§3) HN-5 or UMSCC-10 cells were counted and plated. Twenty-four hours later, the cells in culture were then exposed to AC480 at 300 or 600 nM for 6 hrs. The cells were then irradiated with graded doses at 2, 4, or 6 Gy of γ-rays using a ^137Cs source (3.7 Gy/min). Sixty-six hours later, culture media with AC480 were removed and fresh media were added. Media change was also done for untreated control cells at the same time. After 11 to 14 days of incubation, colonies were counted. […] The dose enhancement ratio at survival fraction of 0.5 was 1.30 for 300 nM and 1.43 for 600 nM of AC480. Dose enhancement ratio was calculated by dividing the radiation dose required to achieve a surviving fraction of 0.5 in the absence of AC480 with the radiation dose required to achieve the same surviving fraction in the presence of AC480 at a specified concentration.

UMSCC-10 cells [4] = test: Clonogenic survival assay with γ-irradiation; format: cell-based; settings: AC480 300 or 600 nM from 6 hrs before to 66 hrs after 2, 4 or 6 Gy γ-rays
Description: as §1, §3

HN-5 cells [5] = test: TUNEL assay, radiation-induced apoptosis; format: cell-based
Description: as §1
(§4) Apoptotic cells are detected by in-situ labeling of fragmented DNA with enzymatically labeled nucleotides using the TUNEL method as described in commercial protocols or by following the procedure described in Sgonc et al., Trends in Genetic 1994, 10, 41-42. AC480 increased radiation-induced apoptosis in HN-5 but not in UMSCC-10 cells (FIG. 5).

UMSCC-10 cells [6] = test: TUNEL assay, radiation-induced apoptosis; format: cell-based
Description: as §1, §4

HN-5 cells [7] = test: Cell-cycle analysis (FACS) after radiation; format: cell-based
Description: as §1
(§5) Cell cycle distribution is measured by determining the ploidy of cells by staining the cells with fluorescent dye and sorting by FACS using a commercially available kit. AC480 increased radiation-induced accumulation of HN-5 but not in UMSCC-10 cells in the G1 cell cycle phase (FIG. 6).

UMSCC-10 cells [8] = test: Cell-cycle analysis (FACS) after radiation; format: cell-based
Description: as §1, §5

γ-H2AX foci = γ-H2AX foci immunocytochemistry (DNA repair); format: cell-based; settings: 24 hrs after radiation; AC480 600 nM (FIG. 7)
Description: The control is shown as open circle and solid line.
as §1
The extent of DNA repair is quantified by measuring the generation of nuclear foci at the site of DNA damage by phosphorylated H2AX (γ-H2AX), which is involved in the retention of repair and signaling factor complexes at sites of DNA double strand breaks. γ-H2AX is detected with antibodies to phosphorylated H2AX using traditional immunohistochemistry (See, e.g., Friesner et al., Mol. Biol. Cell. 2005, ^-16, 2566-2576; and Dote et al., Clin. Cancer Res. 2005, 11, 4571-4579). […]

HN-5 tumor xenografts = test: Tumor growth delay assay, HN-5 tumor xenografts; format: in vivo, nude male mice; settings: AC480 120 mg/kg gavage once daily for 14 days
Description: The terms “dose enhancement ratio” and “dose enhancement factor” are used interchangeably herein and are used herein to measure the fold increase in cytotoxic efficacy of radiation when delivered in the presence of a radiosensitizer. In certain embodiments, dose enhancement ratio is calculated by dividing the radiation dose required to achieve a surviving fraction in the absence of the radiosensitizer with the radiation dose required to achieve the same surviving fraction in the presence of the radiosensitizer at a specified concentration. This calculation method can be used to assess the radiosensitizing effect of an radiosensitizer in an in vitro system, such as cells in culture. […]
The effect of AC480 on radioresponse was assessed by tumor growth delay assay using HN-5 tumor xenografts generated in nude male mice.
Specifically, HN-5 cells (1×10^6) were injected into the right leg of 3-4 month old nude male mice (nu-nu/Ncr) (SPF mice). […] Tumors were measured with calipers 3 times/week to determine tumor growth delay. […]

[9] = system: adenocarcinomas expressing HER1 and/or HER2 in salivary gland, breast, non-small cell lung, and gastric cancer cell lines; settings: Wong et al., Clin. Cancer Res. 2006; cited from earlier work

Cc1c(NC(=O)OC[C@@H]2COCCN2)cn2ncnc(Nc3ccc4c(cnn4Cc4cccc(F)c4)c3)c12 [AC480]
effect on cell growth (MTT) (HN-5 cells [1]): inhibits the growth
effect on cell growth (MTT) (UMSCC-10 cells [2]): not
dose enhancement ratio at survival fraction of 0.5 (HN-5 cells [3]; 300 nM AC480): 1.30
dose enhancement ratio at survival fraction of 0.5 (HN-5 cells [3]; 600 nM AC480): 1.43
effect on radiosensitivity (clonogenic survival) (HN-5 cells [3]; HN-5 cells, AC480 300 or 600 nM from 6 hrs before to 66 hrs after 2, 4 or 6 Gy γ-rays): significantly enhanced
effect on radiosensitivity (clonogenic survival) (UMSCC-10 cells [4]): not
effect on radiation-induced apoptosis (TUNEL) (HN-5 cells [5]): increased
effect on radiation-induced apoptosis (TUNEL) (UMSCC-10 cells [6]): not
effect on radiation-induced accumulation of cells in the G1 cell cycle phase (HN-5 cells [7]): increased
effect on radiation-induced accumulation of cells in the G1 cell cycle phase (UMSCC-10 cells [8]): not
presence of γ-H2AX foci after radiation (γ-H2AX foci): prolonged
effect on radioresponse of HN-5 tumors in vivo (HN-5 tumor xenografts; before and during radiation (5 Gy×5 days)): improve the radioresponse
enhancement factor (tumor growth delay) (HN-5 tumor xenografts; with XRT 5 Gy×5 consecutive days, HN-5 xenografts in nude mice): 1.9
cytotoxicity [9]: cytotoxic
